Blank lines part the entries; values can stand above or below the compound they belong to.
What was measured:
Experiment in all cases: two-electrode voltage clamp, Xenopus oocytes
AChRB1 (O. vulgaris) = system: T1, AChRB1 (O. vulgaris); format: cell-based, Octopus vulgaris; conditions: agonist; ND96, -60 mV
T1 construct: full-length cDNA cloned from 1-dph O. vulgaris paralarvae, KSM vector, Xenopus oocytes; expressed alone (homomeric); LOC number follows O. sinensis annotation

DopC1 (O. vulgaris) [1] = system: T2, DopC1 (O. vulgaris); format: cell-based, Octopus vulgaris; conditions: agonist; ND96, -60 mV
T2 construct: full-length cDNA cloned from 1-dph O. vulgaris paralarvae, KSM vector, Xenopus oocytes; homomeric cys-loop channel; LOC number follows O. sinensis annotation

DopC1 (O. vulgaris) [2] = system: T2, DopC1 (O. vulgaris); format: cell-based, Octopus vulgaris; conditions: antagonist; against 10 µM dopamine (~EC50); ND96, -60 mV
DopC1 from Daphnia magna = target: T3, DopC1 from Daphnia magna (Daphnia magna, UniProt A0A0P5YVQ3); format: cell-based; conditions: agonist; ND96, -60 mV
T3 construct: cDNA cloned from adult D. magna RNA, KSM vector, Xenopus oocytes; homomeric; LOC116927457 assigned to DopC1 by printed order only (DopC2 = LOC116923538)
T3 sequence (A0A0P5YVQ3 24-503): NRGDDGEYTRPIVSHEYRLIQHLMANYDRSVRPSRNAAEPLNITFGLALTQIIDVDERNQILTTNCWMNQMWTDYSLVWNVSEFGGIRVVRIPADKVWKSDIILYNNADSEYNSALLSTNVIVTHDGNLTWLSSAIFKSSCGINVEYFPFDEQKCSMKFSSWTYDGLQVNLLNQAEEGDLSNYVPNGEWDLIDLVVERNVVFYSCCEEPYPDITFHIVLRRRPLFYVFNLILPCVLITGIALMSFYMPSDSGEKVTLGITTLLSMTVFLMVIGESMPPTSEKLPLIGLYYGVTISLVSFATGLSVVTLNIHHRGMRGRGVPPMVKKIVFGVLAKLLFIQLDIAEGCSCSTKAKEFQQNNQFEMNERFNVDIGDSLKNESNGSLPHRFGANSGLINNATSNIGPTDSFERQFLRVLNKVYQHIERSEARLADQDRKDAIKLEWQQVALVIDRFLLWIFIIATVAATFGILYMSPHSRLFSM

[3] = target: T4, DopC1 from Apis mellifera (Apis mellifera, UniProt A0A7M7R6H2); format: cell-based
T4 construct: gene LOC408525; full-length synthetic cDNA (GeneArt), KSM vector, Xenopus oocytes; homomeric channel
T4 sequence (A0A7M7R6H2 91-549): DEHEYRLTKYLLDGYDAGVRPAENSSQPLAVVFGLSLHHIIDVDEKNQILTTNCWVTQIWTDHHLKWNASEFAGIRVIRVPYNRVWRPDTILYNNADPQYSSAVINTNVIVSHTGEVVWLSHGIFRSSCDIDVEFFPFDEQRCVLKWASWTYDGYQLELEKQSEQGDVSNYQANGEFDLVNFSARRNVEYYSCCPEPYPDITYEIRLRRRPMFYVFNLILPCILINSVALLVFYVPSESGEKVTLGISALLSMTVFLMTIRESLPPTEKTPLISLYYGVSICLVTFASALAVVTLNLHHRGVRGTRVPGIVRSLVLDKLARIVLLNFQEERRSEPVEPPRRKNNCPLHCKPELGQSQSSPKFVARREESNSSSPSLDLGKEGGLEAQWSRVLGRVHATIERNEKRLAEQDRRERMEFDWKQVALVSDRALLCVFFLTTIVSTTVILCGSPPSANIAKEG

DopC2 from Daphnia magna = target: T5, DopC2 from Daphnia magna (Daphnia magna, UniProt A0A0P6GTI1); format: cell-based; conditions: agonist; ND96, -60 mV
T5 construct: gene APZ42_017815; cDNA cloned from adult D. magna RNA, KSM vector, Xenopus oocytes; homomeric; LOC116923538 assigned to DopC2 by printed order only (DopC1 = LOC116927457)
T5 sequence (A0A0P6GTI1 36-620): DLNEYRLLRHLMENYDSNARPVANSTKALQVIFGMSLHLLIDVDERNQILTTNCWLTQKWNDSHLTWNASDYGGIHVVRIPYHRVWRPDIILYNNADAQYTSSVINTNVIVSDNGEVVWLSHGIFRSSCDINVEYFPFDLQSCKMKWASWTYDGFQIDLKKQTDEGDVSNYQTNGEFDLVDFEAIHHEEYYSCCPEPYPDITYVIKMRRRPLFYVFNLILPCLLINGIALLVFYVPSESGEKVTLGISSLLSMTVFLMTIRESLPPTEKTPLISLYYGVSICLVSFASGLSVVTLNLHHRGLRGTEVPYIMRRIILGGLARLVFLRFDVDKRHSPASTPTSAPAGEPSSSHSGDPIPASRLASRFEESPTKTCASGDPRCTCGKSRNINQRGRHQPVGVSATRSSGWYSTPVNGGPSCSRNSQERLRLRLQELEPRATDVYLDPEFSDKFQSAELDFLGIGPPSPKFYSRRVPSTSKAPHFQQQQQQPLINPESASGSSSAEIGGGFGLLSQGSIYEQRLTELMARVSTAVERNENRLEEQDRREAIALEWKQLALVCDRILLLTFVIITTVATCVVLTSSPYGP

[4] = target: T6, DopC1 from Aplysia californica (Aplysia californica, UniProt A0ABM0GHJ1); format: cell-based
T6 construct: gene LOC101853763; full-length synthetic cDNA (GeneArt), KSM vector, Xenopus oocytes; homomeric channel
T6 sequence (A0ABM0GHJ1 25-518): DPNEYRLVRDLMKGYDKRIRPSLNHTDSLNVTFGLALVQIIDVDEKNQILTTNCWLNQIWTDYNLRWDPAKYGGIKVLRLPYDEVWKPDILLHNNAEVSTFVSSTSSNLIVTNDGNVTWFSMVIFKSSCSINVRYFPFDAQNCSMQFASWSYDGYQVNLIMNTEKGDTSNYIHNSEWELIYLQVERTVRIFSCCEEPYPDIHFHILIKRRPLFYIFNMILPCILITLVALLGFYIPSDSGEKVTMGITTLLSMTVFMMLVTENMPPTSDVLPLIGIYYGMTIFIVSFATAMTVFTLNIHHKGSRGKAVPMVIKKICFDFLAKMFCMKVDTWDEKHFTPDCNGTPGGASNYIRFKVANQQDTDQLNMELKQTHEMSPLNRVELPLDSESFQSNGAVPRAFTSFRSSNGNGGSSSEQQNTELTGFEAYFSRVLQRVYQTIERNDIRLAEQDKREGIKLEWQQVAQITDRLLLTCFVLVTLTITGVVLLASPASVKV

EC50 (AChRB1 (O. vulgaris)): 98 µM
Compound: C[N+](C)(C)CCO [choline]

EC50 (AChRB1 (O. vulgaris)): 1.9 µM
Compound: CC(=O)OCC[N+](C)(C)C [acetylcholine]

Compound: CNCC(O)c1ccc(O)c(O)c1 (racemic) [epinephrine]
EC50 (DopC1 (O. vulgaris) [1]): 35 µM

Compound: NCCc1ccc(O)cc1 [tyramine]
EC50 (DopC1 (O. vulgaris) [1]): 180 µM

Compound: NCC(O)c1ccc(O)cc1 (racemic) [octopamine]
EC50 (DopC1 (O. vulgaris) [1]): 18000 µM

Compound: CN1CCc2cccc3c2[C@H]1Cc1ccc(O)c(O)c1-3 [apomorphine]
IC50 (DopC1 (O. vulgaris) [2]): 7 µM

Compound: NCCc1c[nH]c2ccc(O)cc12 [serotonin]
EC50 (DopC1 (O. vulgaris) [1]): 73 µM

Compound: NCCc1ccc(O)c(O)c1 [dopamine]
EC50 (DopC1 from Daphnia magna): 50 µM
EC50 [3]: 1.7 µM
EC50 (DopC2 from Daphnia magna): 4.6 µM
EC50 [4]: 3.5 µM
EC50 (DopC1 (O. vulgaris) [1]): 7.6 µM

Compound: NCC(O)c1ccc(O)c(O)c1 (racemic) [norepinephrine]
EC50 (DopC1 from Daphnia magna): 82 µM
EC50 [3]: 6.3 µM
EC50 (DopC2 from Daphnia magna): 36 µM
EC50 [4]: 8.4 µM
EC50 (DopC1 (O. vulgaris) [1]): 55 µM

From publication doi:10.1101/2025.04.02.646353v2, “Novel dopaminergic neurotransmission in the Octopus visual system” (biorxiv, 2025)
